According to patent publication US6235780A, “ω-cycloalkyl-prostaglandin E1 derivatives” (Ono Pharmaceutical Co., Ltd., priority 1998, dated 2001):

What was measured:
mouse EP1 = target: T1, mouse EP1 (Mus musculus, UniProt P35375); experiment: Binding assay using expression cell of prostanoids receptor subtype: 3H-PGE2 binding inhibition, EP1; conditions: 2.5 nM 3H-PGE2, CHO cell membrane fraction, pH 6.0, room temperature, 1 hour; read-out: Dissociation Constant Ki, EP1
T1 construct: expressed in transfected cells; host or cells: CHO cells
T1 sequence (P35375 1-405): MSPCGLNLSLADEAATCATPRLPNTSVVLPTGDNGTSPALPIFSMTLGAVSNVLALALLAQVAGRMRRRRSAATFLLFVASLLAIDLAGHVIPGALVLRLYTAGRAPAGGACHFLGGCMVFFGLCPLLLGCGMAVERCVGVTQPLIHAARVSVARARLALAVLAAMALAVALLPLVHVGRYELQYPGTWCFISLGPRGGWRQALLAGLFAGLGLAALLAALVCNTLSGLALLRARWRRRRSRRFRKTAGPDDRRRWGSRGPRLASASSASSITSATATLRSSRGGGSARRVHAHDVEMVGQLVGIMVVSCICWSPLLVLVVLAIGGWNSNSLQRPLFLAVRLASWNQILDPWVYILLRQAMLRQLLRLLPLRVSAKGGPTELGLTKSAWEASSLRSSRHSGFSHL
Experimental: (§1) (i) Binding assay using expression cell of prostanoids receptor subtype
(§2) The preparation of membrane fraction was carried out according to the method of Sugimoto et al. [J. Biol. Chem., 267, 6463-6466 (1992)], using expression CHO cell of the prostanoids receptor subtype (mouse EP1, EP2, EP3α, EP4).
(§3) The standard assay mixture containing membrane fraction (0.5 mg/ml), and ^3 H-PGE2 in a final volume of 200 μl was incubated at room temperature for 1 hour. The reaction was terminated by addition of 3 ml of ice-cooled buffer. The mixture was filtered through a GF/B glass filter under reduced pressure. The radioactivity associated with the filter was measured by liquid scintillation counter.
(§4) Kd and Bmax values were determined from Scatchard plots [Ann. N.Y. Acad. Sci., 51, 660 (1949)]. Non-specific binding was calculated as the binding in the presence of an excess (10 μM) of unlabeled PGE2. In the measurement of ^3 H-PGE2 binding inhibitory activity, 2.5 nM of ^3 H-PGE2 and various concentrations of the compounds of the present invention were added. The following buffer was used in all reactions.
(§5) Buffer; 10 mM potassium phosphate (pH 6.0), 1 mM EDTA, 10 mM MgCl2, 0.1 M NaCl.
(§6) The dissociation constant Ki (μM) of each compound was calculated by the following equation.

mouse EP2 = target: T2, mouse EP2 (Mus musculus, UniProt Q62053); experiment: Binding assay using expression cell of prostanoids receptor subtype: 3H-PGE2 binding inhibition, EP2; conditions: 2.5 nM 3H-PGE2, CHO cell membrane fraction, pH 6.0, room temperature, 1 hour; read-out: Dissociation Constant Ki, EP2
T2 construct: expressed in transfected cells; host or cells: CHO cells
T2 sequence (Q62053 whole entry): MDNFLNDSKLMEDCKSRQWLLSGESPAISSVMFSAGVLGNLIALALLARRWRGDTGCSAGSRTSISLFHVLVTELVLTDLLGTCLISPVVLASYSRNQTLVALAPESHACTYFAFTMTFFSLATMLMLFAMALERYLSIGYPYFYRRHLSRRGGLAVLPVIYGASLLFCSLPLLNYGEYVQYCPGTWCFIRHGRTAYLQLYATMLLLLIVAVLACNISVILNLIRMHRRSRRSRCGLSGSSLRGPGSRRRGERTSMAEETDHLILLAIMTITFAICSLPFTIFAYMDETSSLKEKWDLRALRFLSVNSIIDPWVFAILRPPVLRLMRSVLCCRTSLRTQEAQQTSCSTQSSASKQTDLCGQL
Experimental: as §1, §2, §3, §4, §5, §6

mouse EP3α = target: T3, mouse EP3α (Mus musculus, UniProt P30557); experiment: Binding assay using expression cell of prostanoids receptor subtype: 3H-PGE2 binding inhibition, EP3α; conditions: 2.5 nM 3H-PGE2, CHO cell membrane fraction, pH 6.0, room temperature, 1 hour; read-out: Dissociation Constant Ki, EP3α
T3 construct: expressed in transfected cells; host or cells: CHO cells
T3 sequence (P30557 1-365): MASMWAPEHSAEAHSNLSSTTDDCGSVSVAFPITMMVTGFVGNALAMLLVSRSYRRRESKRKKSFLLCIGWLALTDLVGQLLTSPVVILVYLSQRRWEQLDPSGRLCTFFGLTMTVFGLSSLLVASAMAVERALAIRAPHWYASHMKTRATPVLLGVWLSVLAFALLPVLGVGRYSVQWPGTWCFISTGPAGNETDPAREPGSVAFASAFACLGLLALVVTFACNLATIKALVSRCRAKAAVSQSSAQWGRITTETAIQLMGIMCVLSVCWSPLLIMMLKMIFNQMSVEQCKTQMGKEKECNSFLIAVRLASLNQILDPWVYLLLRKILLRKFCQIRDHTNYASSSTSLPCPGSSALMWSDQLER
Experimental: as §1, §2, §3, §4, §5, §6

mouse EP4 = target: T4, mouse EP4 (Mus musculus, UniProt P32240); experiment: Binding assay using expression cell of prostanoids receptor subtype: 3H-PGE2 binding inhibition, EP4; conditions: 2.5 nM 3H-PGE2, CHO cell membrane fraction, pH 6.0, room temperature, 1 hour; read-out: Dissociation Constant Ki, EP4
T4 construct: expressed in transfected cells; host or cells: CHO cells
T4 sequence (P32240 whole entry): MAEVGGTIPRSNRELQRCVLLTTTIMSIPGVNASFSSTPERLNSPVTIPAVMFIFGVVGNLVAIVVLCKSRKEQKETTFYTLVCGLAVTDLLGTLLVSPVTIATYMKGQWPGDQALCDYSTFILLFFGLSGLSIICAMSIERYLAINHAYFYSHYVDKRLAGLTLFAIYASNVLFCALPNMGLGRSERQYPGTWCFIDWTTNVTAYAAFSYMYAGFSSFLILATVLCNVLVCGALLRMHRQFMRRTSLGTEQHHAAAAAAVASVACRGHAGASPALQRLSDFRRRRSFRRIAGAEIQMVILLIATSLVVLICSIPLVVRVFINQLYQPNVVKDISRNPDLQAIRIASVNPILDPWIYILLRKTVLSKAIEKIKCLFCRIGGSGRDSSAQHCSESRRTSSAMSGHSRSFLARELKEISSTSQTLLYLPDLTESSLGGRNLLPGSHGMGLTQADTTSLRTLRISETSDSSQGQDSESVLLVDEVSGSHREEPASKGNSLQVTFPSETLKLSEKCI
Experimental: as §1, §2, §3, §4, §5, §6

Ki (mouse EP1) [µM] | Ki (mouse EP2) [µM] | Ki (mouse EP3α) [µM] | Ki (mouse EP4) [µM] | Compound
> 10 | 0.066 | > 10 | > 10 | CCC1([C@@H](O)C/C=C/[C@@H]2[C@@H](CCCCCCC(=O)O)[C@H](F)C[C@H]2O)CCC1 [Example 2(a), (9β,11α,16α)-9-Fluoro-11,16-dihydroxy-17,17-propano-20-norprosta-13E-enoic acid]
5.7 | 0.0081 | > 10 | 1.7 | CCC1([C@@H](O)C/C=C/[C@@H]2[C@@H](CCCCCCC(=O)O)[C@H](Cl)C[C@H]2O)CCC1 [Example 2, (9β,11α,16α)-9-Chloro-11,16-dihydroxy-17,17-propano-20-norprosta-13E-enoic acid]
3.5 | 0.017 | > 10 | > 10 | CCC1([C@@H](O)CCC[C@@H]2[C@@H](CCCCCCC(=O)O)[C@H](Cl)C[C@H]2O)CCC1 [Example 3(a), (9β,11α,16α)-9-Chloro-11,16-dihydroxy-17,17-propano-20-norprostanoic acid]
